{"source": "ChEMBL document CHEMBL3045807", "about": "“Synthesis of novel pyrazolyl tetrazoles as selective COX-2 inhibitors” (Med Chem Res, 2013)", "key": {"[1]": {"system": "Rattus norvegicus", "assay": "Ulcerogenic activity against fasted albino Rattus norvegicus (rat) assessed as ulcer index at 50 mg/kg, po administered QD for 3 days measured on day 4", "type": "toxicity, organism-based", "parameters": "dose 50 mg/kg, route oral", "conditions": "in vivo, 72 h"}, "[2]": {"system": "Rattus norvegicus", "assay": "Anti-inflammatory activity in albino Rattus norvegicus (rat) assessed as carrageenan-induced paw edema volume at 20 mg/kg, po administered 1 hr prior to carrageenan-challenge measured at 2 hr (reference value: 4.25 +/- 0.07 ml)", "type": "functional"}, "[3]": {"system": "Rattus norvegicus", "assay": "Anti-inflammatory activity in albino Rattus norvegicus (rat) assessed as carrageenan-induced paw edema volume at 20 mg/kg, po administered 1 hr prior to carrageenan-challenge measured at 1 hr (reference value: 3.75 +/- 0.01 ml)", "type": "functional"}, "[4]": {"system": "Rattus norvegicus", "assay": "Anti-inflammatory activity in albino Rattus norvegicus (rat) assessed as inhibition of carrageenan-induced paw edema at 20 mg/kg, po administered 1 hr prior to carrageenan-challenge measured at 3 hr relative to control", "type": "functional"}, "[5]": {"system": "Rattus norvegicus", "assay": "Anti-inflammatory activity in albino Rattus norvegicus (rat) assessed as carrageenan-induced paw edema volume at 20 mg/kg, po administered 1 hr prior to carrageenan-challenge measured at 0.5 hr (reference value: 2.5 +/- 0.02 ml)", "type": "functional"}, "[6]": {"organism": "Ovis aries", "assay": "Selectivity ratio of IC50 for Ovis aries (sheep) COX2 to IC50 for ovine COX1"}, "[7]": {"system": "Rattus norvegicus", "assay": "Ulcerogenic activity against fasted albino Rattus norvegicus (rat) assessed as ulcer index at 100 mg/kg, po administered QD for 3 days measured on day 4", "type": "toxicity, organism-based", "parameters": "dose 100 mg/kg, route oral", "conditions": "in vivo, 72 h"}}}
{"smiles": "O=C([O-])Cc1ccccc1Nc1c(Cl)cccc1Cl.[Na+]", "note": "[DICLOFENAC SODIUM]", "values": [{"measurement": "UI", "setting": "[1]", "result": 17.02}, {"measurement": "Activity", "setting": "[2]", "result": 0.25, "unit": "mL"}, {"measurement": "Activity", "setting": "[3]", "result": 1.15, "unit": "mL"}, {"measurement": "inhibition in vivo at 20 mg/kg", "setting": "[4]", "result": 88, "unit": "%"}, {"measurement": "Activity", "setting": "[5]", "result": 1.67, "unit": "mL"}]}
{"smiles": "Cc1ccc(-c2cc(C(F)(F)F)nn2-c2ccc(S(N)(=O)=O)cc2)cc1", "note": "[CELECOXIB]", "values": [{"measurement": "UI", "setting": "[1]", "result": 12.51}, {"measurement": "Ratio IC50", "setting": "[6]", "result": 0.02}]}
{"smiles": "COc1ccc(-c2nn(-c3ccccc3)cc2-c2nn[nH]n2)cc1", "values": [{"measurement": "UI", "setting": "[7]", "result": 14.22}]}
{"smiles": "Clc1ccc(-c2nn(-c3ccccc3)cc2-c2nn[nH]n2)cc1", "values": [{"measurement": "UI", "setting": "[7]", "result": 13.9}]}
